PubChem BioAssay AID206 (DTP/NCI, 2004)
Several values for one entry are separate records, joined by “and”; a condition that tells them apart may be missing. Equal entries are not always repeated. Results filed as inconclusive are left out.

Test system: nude mice, HT29 intrarenal xenograft, tumor weight T/C
Assay: NCI In Vivo Anticancer Drug Screen. Data for tumor model HT29;CX-1 Human Adenocarcinoma (MER+) (intrarenal inoculation) in NU/NU Swiss (nude) mice
Settings: endpoint: mean tumor weight change, higher = larger tumour
Procedure, shortened: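 Tumor-bearing mice received test compound or vehicle, and tumor size or survival was recorded. Values are the treated-group measurement divided by the vehicle-treated control measurement.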

[1] = dose: 12.5 mg/kg/injection, schedule: Q04DX004 (sc), vehicle: Klucel (hydroxypropylcellulose) (HPC)
[2] = dose: 25.0 mg/kg/injection, schedule: Q04DX004 (sc), vehicle: Klucel (hydroxypropylcellulose) (HPC)
[3] = dose: 300.0 mg/kg/injection, schedule: Q04DX004 (sc), vehicle: saline with Tween-80
[4] = dose: 600.0 mg/kg/injection, schedule: Q04DX004 (sc), vehicle: saline with Tween-80
[5] = dose: 1200.0 mg/kg/injection, schedule: Q04DX004 (sc), vehicle: saline with Tween-80
[6] = dose: 2400.0 mg/kg/injection, schedule: Q04DX004 (sc), vehicle: saline with Tween-80
[7] = dose: 600.0 mg/kg/injection, schedule: Q04DX004 (sc), vehicle: Klucel (hydroxypropylcellulose) (HPC)

Structure (SMILES): CN(C(=S)S(=O)(=O)C12CC3CC(CC(C3)C1)C2)c1ccccc1
- T/C [1]: 99 % of control
- T/C [2]: 113 % of control
- T/C (dose: 400.0 mg/kg/injection, schedule: Q04DX004 (sc), vehicle: Klucel (hydroxypropylcellulose) (HPC)): 107 % of control and 123 % of control
- T/C (dose: 800.0 mg/kg/injection, schedule: Q04DX004 (sc), vehicle: Klucel (hydroxypropylcellulose) (HPC)): 197 % of control

Structure (SMILES): N#C[Se-].c1ccc([Te+](c2ccccc2)c2ccccc2)cc1
- T/C [1]: 64 % of control
- T/C [2]: 44 % of control

Structure (SMILES): O=C1C2CC=CCC2C(=O)N1SC(Cl)(Cl)Cl (stereo not given)
- T/C (dose: 18.75 mg/kg/injection, schedule: Q04DX004 (sc), vehicle: saline with Tween-80): 96 % of control
- T/C (dose: 37.5 mg/kg/injection, schedule: Q04DX004 (sc), vehicle: saline with Tween-80): 88 % of control
- T/C [3]: 101 % of control
- T/C [4]: 71 % of control

Structure (SMILES): CO[C@H]1C[C@@H]2CC[C@@H](C)[C@@](O)(O2)C(=O)C(=O)N2CCCC[C@H]2C(=O)O[C@H]([C@H](C)C[C@@H]2CC[C@@H](O)[C@H](OC)C2)CC(=O)[C@H](C)C=C(C)[C@@H](O)[C@@H](OC)C(=O)[C@H](C)C[C@H](C)/C=C/C=C/C=C1C
- T/C (dose: 50.0 mg/kg/injection, schedule: Q01DX010 (sc), vehicle: saline with Tween-80): 28 % of control

Structure (SMILES): O=C(O)/C=C/C(=O)Nc1ccc(Cl)c(Cl)c1
- T/C (dose: 50.0 mg/kg/injection, schedule: Q04DX004 (sc), vehicle: Klucel (hydroxypropylcellulose) (HPC)): 151 % of control
- T/C (dose: 100.0 mg/kg/injection, schedule: Q04DX004 (sc), vehicle: Klucel (hydroxypropylcellulose) (HPC)): 102 % of control
- T/C (dose: 200.0 mg/kg/injection, schedule: Q04DX004 (sc), vehicle: Klucel (hydroxypropylcellulose) (HPC)): 91 % of control

Structure (SMILES): CC(Oc1ccccc1-c1ccccc1)C(=O)N(C)C (stereo not given)
- T/C (dose: 200.0 mg/kg/injection, schedule: Q04DX004 (sc), vehicle: saline with Tween-80): 115 % of control
- T/C (dose: 400.0 mg/kg/injection, schedule: Q04DX004 (sc), vehicle: saline with Tween-80): 63 % of control
- T/C (dose: 800.0 mg/kg/injection, schedule: Q04DX004 (sc), vehicle: saline with Tween-80): 89 % of control
- T/C (dose: 1600.0 mg/kg/injection, schedule: Q04DX004 (sc), vehicle: saline with Tween-80): 55 % of control

Structure (SMILES): Nc1ccccc1N
- T/C (dose: 100.0 mg/kg/injection, schedule: Q01DX010 (sc), vehicle: Klucel (hydroxypropylcellulose) (HPC)): 206 % of control
- T/C (dose: 200.0 mg/kg/injection, schedule: Q01DX010 (sc), vehicle: Klucel (hydroxypropylcellulose) (HPC)): 115 % of control

Structure (SMILES): O=C1SC(c2ccccc2)=S=C1c1ccccc1
- T/C [3]: 102 % of control
- T/C [5]: 90 % of control

Structure (SMILES): O=[N+]([O-])c1ccc(Sc2ccncn2)c([N+](=O)[O-])c1
- T/C (dose: 150.0 mg/kg/injection, schedule: Q04DX004 (sc), vehicle: saline with Tween-80): 44 % of control
- T/C [3]: 85 % of control
- T/C [4]: 85 % of control and 100 % of control
- T/C [5]: 73 % of control
- T/C [6]: 86 % of control

Structure (SMILES): CCOC(=O)C(CC(C)C)NC(=O)C(N)Cc1ccc(N(CCCl)CCCl)cc1 (stereo not given)
- T/C (dose: 7.5 mg/kg/injection, schedule: Q04DX004 (sc), vehicle: water): 81 % of control
- T/C (dose: 15.0 mg/kg/injection, schedule: Q04DX004 (sc), vehicle: water): 105 % of control and 118 % of control
- T/C (dose: 30.0 mg/kg/injection, schedule: Q04DX004 (sc), vehicle: water): 82 % of control and 86 % of control
- T/C (dose: 60.0 mg/kg/injection, schedule: Q04DX004 (sc), vehicle: water): 7 % of control

Structure (SMILES): C[C@@]1(CO)[C@H](O)CC[C@@]2(C)[C@H]1CC[C@H]1C[C@@H]3C[C@@]12CC[C@@]3(O)COC(=O)CN
- T/C (dose: 8.0 mg/kg/injection, schedule: Q04DX004 (sc), vehicle: saline + alcohol): 226 % of control
- T/C (dose: 16.0 mg/kg/injection, schedule: Q04DX004 (sc), vehicle: saline + alcohol): 106 % of control
- T/C (dose: 32.0 mg/kg/injection, schedule: Q04DX004 (sc), vehicle: saline + alcohol): 94 % of control
- T/C (dose: 64.0 mg/kg/injection, schedule: Q04DX004 (sc), vehicle: saline + alcohol): 218 % of control
- T/C (dose: 500.0 micrograms/kg/injection, schedule: Q04DX004 (sc), vehicle: saline + alcohol): 97 % of control
- T/C (dose: 1000.0 micrograms/kg/injection, schedule: Q04DX004 (sc), vehicle: saline + alcohol): 108 % of control
- T/C (dose: 2000.0 micrograms/kg/injection, schedule: Q04DX004 (sc), vehicle: saline + alcohol): 101 % of control
- T/C (dose: 4000.0 micrograms/kg/injection, schedule: Q04DX004 (sc), vehicle: saline + alcohol): 73 % of control

Structure (SMILES): CN(Cc1cnc2nc(N)nc(N)c2n1)c1ccc(C(=O)N[C@@H](CCC(=O)O)C(=O)O)cc1
- T/C (dose: 0.5 mg/kg/injection, schedule: Q01DX010 (sc), vehicle: sodium bicarbonate): 116 % of control
- T/C (dose: 1.0 mg/kg/injection, schedule: Q01DX010 (sc), vehicle: sodium bicarbonate): 41 % of control

Structure (SMILES): CCC1CC2CN(CCc3c([nH]c4ccccc34)C(C(=O)OC)(c3cc4c(cc3OC)N(C)C3C(O)(C(=O)OC)C(OC(C)=O)C5(CC)C=CCN6CCC43C65)C2)C1 (stereo not given)
- T/C (dose: 1.0 mg/kg/injection, schedule: Q04DX004 (sc), vehicle: saline): 209 % of control
- T/C (dose: 2.0 mg/kg/injection, schedule: Q04DX004 (sc), vehicle: saline): 164 % of control
- T/C (dose: 4.0 mg/kg/injection, schedule: Q04DX004 (sc), vehicle: saline): 58 % of control
- T/C (dose: 8.0 mg/kg/injection, schedule: Q04DX004 (sc), vehicle: saline): 68 % of control

Structure (SMILES): CCCCC(=O)OCC(=O)[C@]1(O)Cc2c(O)c3c(c(O)c2[C@@H](OC2CC(NC(=O)C(F)(F)F)C(O)C(C)O2)C1)C(=O)c1c(OC)cccc1C3=O (stereo not given in full)
- T/C (dose: 64.0 mg/kg/injection, schedule: Q01DX010 (sc), vehicle: distilled water + Tween-80): 61 % of control
- T/C (dose: 128.0 mg/kg/injection, schedule: Q01DX010 (sc), vehicle: distilled water + Tween-80): 83 % of control
- T/C (dose: 256.0 mg/kg/injection, schedule: Q01DX010 (sc), vehicle: distilled water + Tween-80): 46 % of control

Structure (SMILES): O=c1[nH]cnc2n[nH]nc12
- T/C (dose: 300.0 mg/kg/injection, schedule: Q04DX004 (sc), vehicle: Klucel (hydroxypropylcellulose) (HPC)): 94 % of control
- T/C [7]: 50 % of control
- T/C (dose: 2400.0 mg/kg/injection, schedule: Q04DX004 (sc), vehicle: Klucel (hydroxypropylcellulose) (HPC)): 30 % of control

Structure (SMILES): NC1(C(=O)O)CCCC1
- T/C (dose: 12.5 mg/kg/injection, schedule: Q01DX010 (sc), vehicle: saline): 49 % of control
- T/C (dose: 200.0 mg/kg/injection, schedule: Q01DX010 (sc), vehicle: saline): -20 % of control

Structure (SMILES): NS(=O)(=O)OCCCCCCCOS(N)(=O)=O
- T/C (dose: 37.5 mg/kg/injection, schedule: Q04DX004 (ip), vehicle: saline with Tween-80): 74 % of control
- T/C (dose: 75.0 mg/kg/injection, schedule: Q04DX004 (ip), vehicle: saline with Tween-80): 102 % of control
- T/C (dose: 150.0 mg/kg/injection, schedule: Q04DX004 (ip), vehicle: saline with Tween-80): 35 % of control

Structure (SMILES): COc1cccc2c1C(=O)c1c(O)c3c(c(O)c1C2=O)C[C@@](O)(C(=O)COC(=O)c1cccnc1)C[C@@H]3OC1CC(N)C(O)C(C)O1 (stereo not given in full)
- T/C (dose: 6.0 mg/kg/injection, schedule: Q04DX004 (sc), vehicle: saline): 44 % of control and 65 % of control

Structure (SMILES): C[C@]12CCC(=O)C=C1CC[C@@H]1[C@@H]2[C@@H](O)C[C@@]2(C)[C@H]1CC[C@]2(O)C(=O)CO
- T/C [7]: 18 % of control and 26 % of control

Structure (SMILES): CCCC(=O)Oc1ccc(/C=N/NC(N)=S)nc1
- T/C (dose: 100.0 mg/kg/injection, schedule: Q01DX010 (sc), vehicle: saline with Tween-80): 182 % of control
- T/C (dose: 200.0 mg/kg/injection, schedule: Q01DX010 (sc), vehicle: saline with Tween-80): 168 % of control

Structure (SMILES): COC1C(CO)OC(n2cnc3c(=S)nc(N)[nH]c32)C1O (stereo not given)
- T/C (dose: 150.0 mg/kg/injection, schedule: Q04DX004 (sc), vehicle: Klucel (hydroxypropylcellulose) (HPC)): 116 % of control

Structure (SMILES): Nc1n[n+](-c2ccc(Cl)cc2)no1
- T/C (dose: 25.0 mg/kg/injection, schedule: Q04DX004 (sc), vehicle: water): 95 % of control
- T/C (dose: 50.0 mg/kg/injection, schedule: Q04DX004 (sc), vehicle: water): 121 % of control
- T/C (dose: 100.0 mg/kg/injection, schedule: Q04DX004 (sc), vehicle: water): 102 % of control

Structure (SMILES): [I][Hg][CH2]C1COC([CH2][Hg][I])CO1 (stereo not given)
- T/C [3]: 54 % of control
- T/C [4]: 55 % of control
- T/C [5]: 57 % of control
- T/C [6]: 32 % of control

Structure (SMILES): C[CH2][Ge]1([CH2]C)[CH2]CC2(CCN(CCCN(C)C)C2)C[CH2]1
- T/C (dose: 50.0 mg/kg/injection, schedule: Q01DX010 (sc), vehicle: saline): 99 % of control

Structure (SMILES): C=C(C)C(=NC(C)(C)C)Nc1ccccc1
- T/C (dose: 100.0 mg/kg/injection, schedule: Q04DX004 (sc), vehicle: saline with Tween-80): 52 % of control
